Measured values as given in ChEMBL document CHEMBL4376882, “Photodynamic Therapy for ras-Driven Cancers: Targeting G-Quadruplex RNA Structures with Bifunctional Alkyl-Modified Porphyrins” (J Med Chem, 2020).
pEC50, pKd: −log10 of the molar value. Activity calls are given as the source filed them. The rule behind the calls is not given here.

Experiments:
PANC-1 [1] = test: Induction of apoptosis in human PANC1 cells assessed as late apoptotic cells at 5 nM and photoirradiated at 7.2 J/cm2 measured after 6 to 24 hrs in presence of NAC by annexin-V-propidium iodide staining based FACScalibur flow cytometry analysis (reference value: 1.3 %); format: functional
[2] = Induction of ROS-mediated Cys5.5 labelled utr-z RNA duplex (unknown origin) degradation at 0.6 uM incubated for 30 mins followed by photoirradiation for 15 to 30 mins by PAGE analysis
PANC-1 [3] = test: Cytotoxicity against human PANC1 cells assessed as reduction in metabolic activity at 20 nM after 24 to 72 hrs in dark followed by photoirradiation in presence of NADH and NAC by resazurin assay; format: functional, cell-based
Quadruplex DNA [4] = test: Binding affinity to human KRAS utr-z RNA g-quadruplex at 40 degree C by SPR analysis; format: nucleic-acid assay
Quadruplex DNA [5] = test: Induction of ROS-mediated […] labeled Ras RNA g-quadruplex (unknown origin) degradation assessed as increase in residual RNA g-quadruplex at 0.6 uM incubated for 30 mins in presence of NAC followed by photoirradiation for 15 to 30 mins by PAGE analysis relative to control; format: nucleic-acid assay
Quadruplex DNA [6] = test: Binding affinity to human KRAS utr-z RNA g-quadruplex assessed as emission spectra at absorbance 650 to 715 nm 1 uM by fluorescence titration method; format: nucleic-acid assay
Quadruplex DNA [7] = test: Induction of ROS-mediated […] labeled Ras RNA g-quadruplex (unknown origin) degradation assessed as residual RNA g-quadruplex at 0.6 uM incubated for 15 to 30 mins followed by photoirradiation for 30 mins by PAGE analysis relative to control; format: nucleic-acid assay
[8] = Drug uptake in human PANC1 cells in presence of dynamin-inhibitor dynasore; format: ADME, cell-based; details: panc-1
[9] = Induction of ROS-mediated […] labelled 20-mer utr-c stem-loop RNA (unknown origin) degradation at 0.6 uM incubated for 30 mins followed by photoirradiation for 15 to 30 mins by PAGE analysis
Quadruplex DNA [10] = test: Induction of ROS-mediated […] labeled Ras RNA g-quadruplex (unknown origin) degradation at 0.6 uM incubated for 30 mins in presence of NAC followed by photoirradiation for 15 to 30 mins by PAGE analysis; format: nucleic-acid assay
Quadruplex DNA [11] = test: Binding affinity to human KRAS utr-z RNA g-quadruplex assessed as compound-RNA complex stoichiometry ratio of 6:1 by Job's plot analysis; format: nucleic-acid assay
PANC-1 [12] = test: Induction of ROS generation in human PANC1 cells assessed as cleavage of CM-H2DCFDA to CM-H2DCF by intracellular esterase by measuring green fluorescence emission incubated for 16 hrs followed by 7.2J/cm2 photoirradiation and subsequent compound washout measured after 40 mins by CM-H2DCFDA staining-based FACSCalibur flow cytometry; format: functional, cell-based
[13] = Induction of ROS-mediated […] labeled Ras RNA g-quadruplex (unknown origin) degradation at 0.6 uM incubated for 30 mins followed by photoirradiation for 15 to 30 mins by PAGE analysis
PANC-1 [14] = test: Cytotoxicity against human PANC1 cells assessed as reduction in metabolic activity after 48 hrs in dark followed by photoirradiation in presence of NADH by resazurin assay; format: functional, cell-based; details: PANC-1, light or radiation study
PANC-1 [15] = test: Induction of apoptosis in human PANC1 cells assessed as late apoptotic cells at 10 nM and photoirradiated at 7.2 J/cm2 measured after 6 to 24 hrs in presence of NAC by annexin-V-propidium iodide staining based FACScalibur flow cytometry analysis (reference value: 1.3 %); format: functional
Quadruplex DNA [16] = test: Binding affinity to human KRAS utr-z RNA g-quadruplex assessed as induction of hypochromicity at 1.6 uM by UV-vis spectrophotometry relative to control; format: nucleic-acid assay
[17] = Drug uptake in human PANC1 cells at 5 uM after 2 hrs by FACS analysis; format: ADME, cell-based; details: panc-1, 2 h
PANC-1 [18] = test: Induction of apoptosis in human PANC1 cells assessed as late apoptotic cells at 15 nM and photoirradiated at 7.2 J/cm2 measured after 6 to 24 hrs in presence of NAC by annexin-V-propidium iodide staining based FACScalibur flow cytometry analysis (reference value: 1.3 %); format: functional
PANC-1 [19] = test: Induction of apoptosis in human PANC1 cells assessed as early apoptotic cells at 15 nM and photoirradiated at 7.2 J/cm2 measured after 6 to 24 hrs by annexin-V-propidium iodide staining based FACScalibur flow cytometry analysis (reference value: 4.6 %); format: functional
PANC-1 [20] = test: Induction of apoptosis in human PANC1 cells assessed as necrotic cells at 15 nM and photoirradiated at 7.2 J/cm2 measured after 6 to 24 hrs in presence of NAC by annexin-V-propidium iodide staining based FACScalibur flow cytometry analysis (reference value: 1 %); format: functional
[21] = molecular target: GTPase NRas (Homo sapiens) (UniProt P01111); test: Inhibition of NRAS in human PANC1 cells assessed as decrease in NRAS mRNA level at 15 nM followed by 7.2 J/cm2 irradiation after 4 hrs by qRT-PCR analysis; format: cell-based
GTPase NRas (Homo sapiens), sequence (P01111 whole entry): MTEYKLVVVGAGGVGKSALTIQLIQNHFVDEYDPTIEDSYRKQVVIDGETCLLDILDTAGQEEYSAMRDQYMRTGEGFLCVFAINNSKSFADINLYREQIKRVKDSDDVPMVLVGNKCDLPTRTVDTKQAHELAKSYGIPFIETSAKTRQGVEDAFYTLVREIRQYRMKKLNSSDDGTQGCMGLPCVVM

PANC-1 [22] = test: Induction of apoptosis in human PANC1 cells assessed as necrotic cells at 10 nM and photoirradiated at 7.2 J/cm2 measured after 6 to 24 hrs by annexin-V-propidium iodide staining based FACScalibur flow cytometry analysis (reference value: 0.7 %); format: functional
PANC-1 [23] = test: Induction of apoptosis in human PANC1 cells assessed as necrotic cells at 10 nM and photoirradiated at 7.2 J/cm2 measured after 6 to 24 hrs in presence of NAC by annexin-V-propidium iodide staining based FACScalibur flow cytometry analysis (reference value: 1 %); format: functional
[24] = molecular target: GTPase NRas (Homo sapiens) (UniProt P01111); test: Inhibition of NRAS in human PANC1 cells assessed as downregulation of NRAS expression at 15 nM followed by 7.2 J/cm2 irradiation after 4 hrs by Western blot analysis (reference value: 25 %); format: cell-based
PANC-1 [25] = test: Induction of apoptosis in human PANC1 cells assessed as viable cells at 5 nM and photoirradiated at 7.2 J/cm2 measured after 6 to 24 hrs in presence of NAC by annexin-V-propidium iodide staining based FACScalibur flow cytometry analysis (reference value: 94.5 %); format: functional; details: PANC-1, light or radiation study, read-out: Activity
PANC-1 [26] = test: Induction of apoptosis in human PANC1 cells assessed as early apoptotic cells at 5 nM and photoirradiated at 7.2 J/cm2 measured after 6 to 24 hrs by annexin-V-propidium iodide staining based FACScalibur flow cytometry analysis (reference value: 4.6 %); format: functional
PANC-1 [27] = test: Induction of apoptosis in human PANC1 cells assessed as late apoptotic cells at 15 nM and photoirradiated at 7.2 J/cm2 measured after 6 to 24 hrs by annexin-V-propidium iodide staining based FACScalibur flow cytometry analysis (reference value: 2.7 %); format: functional
PANC-1 [28] = test: Induction of apoptosis in human PANC1 cells assessed as viable cells at 10 nM and photoirradiated at 7.2 J/cm2 measured after 6 to 24 hrs by annexin-V-propidium iodide staining based FACScalibur flow cytometry analysis (reference value: 91.9 %); format: functional; details: PANC-1, light or radiation study, read-out: Activity
PANC-1 [29] = test: Induction of apoptosis in human PANC1 cells assessed as early apoptotic cells at 15 nM and photoirradiated at 7.2 J/cm2 measured after 6 to 24 hrs in presence of NAC by annexin-V-propidium iodide staining based FACScalibur flow cytometry analysis (reference value: 3.1 %); format: functional

With `CCCCCCCCCCCCCC[n+]1ccc(-c2c3nc(c(-c4cc[n+](C)cc4)c4ccc([nH]4)c(-c4cc[n+](C)cc4)c4nc(c(-c5cc[n+](C)cc5)c5ccc2[nH]5)C=C4)C=C3)cc1.[I-].[I-].[I-].[I-]` the Activity (PANC-1 [1]) was 1.1%, the Activity [2] was “inactive” and the Activity (PANC-1 [3]) was “inactive”. The pKd (Quadruplex DNA [4]) was 6.69 to 7.09, the Activity (Quadruplex DNA [5]) was 50% and the Activity (Quadruplex DNA [6]) was “Active”. The Activity (Quadruplex DNA [7]) was 30%, the Drug uptake [8] was “Not Active” and the Activity [9] was “inactive”. For the same molecule, the Activity (Quadruplex DNA [10]) was “inactive”, the Activity (Quadruplex DNA [11]) was “Active” and the Activity (PANC-1 [12]) was “Dose-dependent effect”. For the same molecule, the Activity [13] was “Active”, the pEC50 (PANC-1 [14]) was 7.86 and the Activity (PANC-1 [15]) was 3.1%. The Activity (Quadruplex DNA [16]) was 50%, the Drug uptake [17] was “Active” and the Activity (PANC-1 [18]) was 5%. For the same molecule, the Activity (PANC-1 [19]) was 4.5%, the Activity (PANC-1 [20]) was 1.7% and the inhibition [21] was “Active”. The Activity (PANC-1 [22]) was 2.2%, the Activity (PANC-1 [23]) was 2.3% and the inhibition [24] was 50%. It also gave a viability at 0.005 µM (PANC-1 [25]) of 95.2%, an Activity (PANC-1 [26]) of 5.1% and an Activity (PANC-1 [27]) of 20.8%. It also gave a viability at 0.01 µM (PANC-1 [28]) of 82.1% and an Activity (PANC-1 [29]) of 3.9%.
